From US20180243325A1, “METHOD FOR INHIBITING ABSORPTION OF AND/OR PROMOTING EXCRETION OF LIPIDS USING D-PSICOSE” (CJ CHEILJEDANG CORPORATION, priority 2015, published 2018)

What was measured:
Type in all cases: in vivo, C57BL/6J mice
[1] = tested on: fatty acid synthase (FAS); assay: Hepatic lipid regulating enzyme activity: FAS; details: FIG. 4B, liver cytoplasmic fraction, HFD+5% w/w in diet, 16 weeks
Protocol: First, 4-week-old male C57BL/6J mice (60 total) were purchased from Jackson Laboratory. The animals were acclimated to the vivarium in a thermo-hygrostat (20-23° C., 45-65%) under a 12 h light/dark cycle and fed a pelletized commercial non-purified diet for 1 week after arrival. The mice were then randomly divided into 6 groups (n=10) and fed the respective experimental diets for 16 weeks: normal diet group (ND, American Institute of Nutrition (AIN)-76 semi-synthetic diet), high-fat diet group (HFD, 20% fat+1% cholesterol based on AIN-76 diet), PSI group (HFD+5% D-psicose, w/w, Sigma Chemical Company), ERY group (HFD+5% erythritol, w/w, Sigma Chemical Company), GLU group (HFD+5% D-glucose, w/w, Sigma Chemical Company), and FRU group (HFD+5% D-fructose, w/w, Sigma Chemical Company). All high-fat diet-fed groups were allowed to ingest the same calories by pair feeding based on the PSI group. The mice had ad libitum access to distilled water during the experimental period. Their feed intakes and body weights were measured daily and biweekly, respectively. The organ weights and the adipose tissue weights of the mice were measured after sacrificing the animals. Samples were prepared and analyzed according to the method developed by Hulcher and Oleson. Specifically, the activity of fatty acid synthase (FAS) as a hepatic lipid regulating enzyme was measured by spectrophotometric assay according to the method described by Nepokroeff et al. Each sample was mixed with 100 μl of cytoplasmic fraction and the mixture was allowed to react at 30° C. for 2 min. A reduction in absorbance at 340 nm was measured. Fatty acid synthase (FAS) activity units were expressed as nanomoles (nmol) of NADPH oxidized for 1 min per mg of cytoplasmic fraction. Fatty acid β-oxidation activity was measured by monitoring the reduction of NAD^+ to NADH in the presence of palmitoyl-CoA, as described by Lazarow. β-oxidation activity units were expressed as nanomoles (nmol) of NADH produced for 1 min per mg of mitochondrial protein.

[2] = tested on: ACC1 (Acetyl-CoA carboxylase 1, 107476); assay: Hepatic mRNA expression, real-time quantitative PCR: ACC1; details: FIG. 6, liver, HFD+5% w/w in diet, 16 weeks
Protocol: (§1) First, 4-week-old male C57BL/6J mice (60 total) were purchased from Jackson Laboratory. The animals were acclimated to the vivarium in a thermo-hygrostat (20-23° C., 45-65%) under a 12 h light/dark cycle and fed a pelletized commercial non-purified diet for 1 week after arrival. The mice were then randomly divided into 6 groups (n=10) and fed the respective experimental diets for 16 weeks: normal diet group (ND, American Institute of Nutrition (AIN)-76 semi-synthetic diet), high-fat diet group (HFD, 20% fat+1% cholesterol based on AIN-76 diet), PSI group (HFD+5% D-psicose, w/w, Sigma Chemical Company), ERY group (HFD+5% erythritol, w/w, Sigma Chemical Company), GLU group (HFD+5% D-glucose, w/w, Sigma Chemical Company), and FRU group (HFD+5% D-fructose, w/w, Sigma Chemical Company). All high-fat diet-fed groups were allowed to ingest the same calories by pair feeding based on the PSI group. The mice had ad libitum access to distilled water during the experimental period. Their feed intakes and body weights were measured daily and biweekly, respectively. The organ weights and the adipose tissue weights of the mice were measured after sacrificing the animals.
(§2) Samples were prepared and analyzed as previously described. Specifically, total RNA was synthesized into cDNA using a QuantiTect Reverse Transcription kit (QIAGEN Gmb1h, Hilden, Germany). RNA expression was quantified with real-time quantitative PCR using a QuantiTect SYBR Green PCR kit (QIAGEN Gmb1h, Hilden, Germany). Primers were designed to detect FAS (fatty acid synthase, 14101), ACC1 (Acetyl-CoA carboxylase 1, 107476), CPT1α (Carnitine palmitoyltransferase 1α, 12894), and CPT2 (Carnitine palmitoyltransferase 2, 12896). GAPDH was used as an internal transcription marker. The reaction was performed a total of 40 cycles (each consisting of 15 sec at 94° C., 30 sec at 58° C., 30 sec at 72° C., and 15 sec at 65° C.). Fluorescence signals were monitored every cycle and the resulting threshold cycles (Ct) were analyzed. mRNA expression in each experimental group was quantified using a CFX96 Real time system (Bio-rad, USA).

[3] = tested on: CPT1α (Carnitine palmitoyltransferase 1α, 12894); assay: Hepatic mRNA expression, real-time quantitative PCR: CPT1α; details: FIG. 6, liver, HFD+5% w/w in diet, 16 weeks
Protocol: as §1, §2

[4] = tested on: high-fat diet-induced obese mice; assay: Lipid excretion in feces; details: FIG. 7, HFD+5% w/w in diet, 16 weeks
Protocol: as §1
Lipids were extracted from feces from mice in the normal diet group (ND) and the high-fat diet groups (HFD, ERY, GLU, FRU, and PSI) and dried. Then, each of the dried lipid extracts was dissolved in 1 ml of ethanol. 200 μl of the lipid solution was emulsified in a solution of Triton X-100 and sodium cholate in distilled water. Triglyceride, cholesterol, and fatty acid levels in the feces were analyzed using the same enzymatic kits as those used in Example 2.

[5] = tested on: high-fat diet-induced obese mice; assay: Plasma lipid profiles of high-fat diet-induced obese mice; details: HFD+5% w/w in diet, 16 weeks
Protocol: as §1, with “animals. Plasma free fatty acid, phospholipid, apolipoprotein A-I (Apo A-I), and apolipoprotein B (ApoB B) levels were measured using Nittobo enzymatic kits (Nittobo medical Co., Tokyo, Japan). Plasma HDL-cholesterol, triglyceride (TG), and total cholesterol (total-C) levels were measured using Asan enzymatic kits (Asan, Seoul, South Korea).” for “animals.”

Row | Structure (SMILES) | hepatic FAS activity [1] | hepatic mRNA expression level of ACC1 [2] | hepatic mRNA expression level of CPT1α [3] | cholesterol level in the feces [4] | fatty acid level in the feces [4] | triglyceride level in the feces [4] | AI, atherogenic index, [(Total C) − HDL-C)]/HDL-C [5] | APO-A I/APO-B [5] | ApoA-I [5] [mg/dL] | ApoB [5] [mg/dL] | FFA (plasma free fatty acid) [5] [mmol/L] | HDL-C [5] [mmol/L] | HTR, (HDL-C/Total-C) × 100 [5] | PL (plasma phospholipid) [5] [mg/dL] | TG (plasma triglyceride) [5] [mmol/L] | Total-C (plasma total cholesterol) [5] [mmol/L] | nonHDL-C [5] [mmol/L]
1 | O=C(CO)[C@@H](O)[C@H](O)[C@H](O)CO [FRU, D-fructose] | increased significantly compared to those in the ND group | significantly lower than those in the ND group | significantly lower than those in the ND group | significantly higher than those from the normal diet group | significantly higher than those from the normal diet group | significantly higher than those from the normal diet group | 4.55 | 2.77 | 27.69 | 9.96 | 0.48 | 0.83 | 20.62 | 115.27 | 1.17 | 4.14 | 3.32
2 | O=C(CO)[C@H](O)[C@H](O)[C@H](O)CO [PSI, D-psicose] | decreased significantly compared to those in other high-fat diet groups | much significantly lower than those in the ND group | much significantly lower than those in the ND group | significantly higher than those from other high-fat diet groups | significantly higher than those from other high-fat diet groups | significantly higher than those from other high-fat diet groups |  | 3.80 |  |  |  |  | 42.98 | 107.23 |  |  | 
3 | O=C[C@H](O)[C@@H](O)[C@H](O)[C@H](O)CO [GLU, D-glucose] | increased significantly compared to those in the ND group | significantly lower than those in the ND group | significantly lower than those in the ND group | significantly higher than those from the normal diet group | significantly higher than those from the normal diet group | significantly higher than those from the normal diet group | 3.76 | 2.92 | 27.23 | 9.32 | 0.49 | 0.82 | 20.19 | 104.86 | 1.28 | 4.07 | 3.25
4 | OC[C@@H](O)[C@@H](O)CO [ERY, erythritol] | increased significantly compared to those in the ND group | significantly lower than those in the ND group | significantly lower than those in the ND group | significantly higher than those from the normal diet group | significantly higher than those from the normal diet group | significantly higher than those from the normal diet group | 3.55 | 3.16 | 27.28 | 8.61 | 0.53 | 1.22 | 23.95 | 135.46 | 1.25 | 5.35 | 4.36
